Like-named read-outs stand apart in the source and are kept apart here. One block for each molecule: values may come before it.
Experiments:
[1] = Barium sulphate scale inhibition; conditions: minimum phosphonate concentration to inhibit 100% BaSO4 scale; 50/50 North Sea water/Formation water, pH 6, 22 hours at 90 °C, ICP-MS
Procedure: To evaluate the efficiency of both scale inhibitors according to the present invention and comparative ones in preventing barium scale inhibition in oil field scaling conditions, the present test is carried out determining the amount of BaSO4 that has precipitated after 22 hours at 90 °C, in a 50/50 mixture of synthetic North Sea water
The amount of soluble Ba ions is determined by inductively coupled plasma mass spectrometry (ICP-MS).
The present test is carried out as follows: • synthetic North Sea and Formation waters are prepared at pH 6. These water solutions are preheated at 90 °C before starting the test. An acetic acid/sodium acetate buffer is prepared and added to the North Sea water in order to give the required pH; • - 15, 30, 50, 70 and 100 ppm of scale inhibitor active phosphonic acid is added to a glass bottle; • - 50 ml of North Sea water is added to this glass bottle while stirring. 50 ml of Formation water is then added to this glass bottle; • - one blank solution is prepared, by mixing 50 ml of North Sea water with 50 ml of Formation water; • - sample bottles were put in an oven for 22 hours at 90 °C; • - after 22 hours, 3 ml of each test solution was taken from the surface, was filtered through a 0.45 µm Millipore filter and added to a stabilizing solution.
The stabilized samples were analyzed by ICP-MS for Ba.
Ba scale inhibition stands for the minimum phosphonate concentration to inhibit 100% BaSO4 scale.
Note that the 100% phosphonate efficiencies for BaSO4 scale inhibition are calculated as follows: % Scale inhibition = (V1−V0/V2−V0) × 100 [formula] wherein V0 = ppm Ba found in the blank solution; V1 = ppm Ba found in the solution with the scale inhibitor; and V2 = ppm Ba present in the Formation water.

[2] = after 28 days; 2.0 ppm of pure active solid or 5.5 ppm as commercial product; previous study; cited from earlier work
[3] = Thermal stability test in synthetic North Sea water; assay type: physicochemical; conditions: 1% active acid in synthetic North Sea water, pH 5.5, 140 °C, one week, 31P NMR; percentage by weight
Procedure: The test is carried out as follows: an aqueous solution containing 20% of scale inhibitor active acid at pH 5.5 (solution 1) is prepared. After that, synthetic North Sea water having a pH of 5.5 (solution 2) is prepared. A 1% scale inhibitor active acid sample is prepared by mixing 1 g of solution 1 with 19 g of solution 2. The so prepared sample is placed in a closed pressure resistant tube and kept in an oven at minimum 140 °C for one week. Finally, after one week, the sample is analyzed by means of 31P NMR spectroscopy.

[4] = Brine and sea water compatibility test (Ca tolerance); assay type: physicochemical; conditions: synthetic North Sea water pH 5.5, 90 °C, 24 hours
Procedure: Scale inhibitors, especially if they have anionic moieties, may form complexes and precipitate with hardness salts, for example calcium, before they can fulfill their dispersing and chelating functions. Compatibility tests are carried out to check if complexation happens or not. If compatibility is poor, not only precipitation occurs, but also overall scale formation becomes faster.

[5] = Calcium carbonate scale inhibition; conditions: 2 ppm active phosphonic acid; 240 ppm Ca2+, 732 ppm HCO3-, pH 8.7 buffer, 50 °C, 22 hours
Procedure: To evaluate the efficiency of both scale inhibitors according to the present invention and comparative ones in preventing calcium carbonate scale in industrial water treatment conditions, the present test is carried out determining the amount of CaCO3 that has precipitated after 22 hours at 50 °C in a 50/50 mixture of cationic and anionic waters with the test phosphonates at three different concentrations. The amount of soluble Ca ions is analyzed by titration. […]
Put the sample bottles in an oven for 22 hours at 50 °C. […] The phosphonate efficiency as CaCO3 scale inhibition is then calculated using the equation: % CaCO3 inhibition = (Cat−Cab) × 100)÷(Cai−Cab) [formula] wherein Cat = calcium remaining in solution of the t sample, where the dilution with HCl has been corrected (Cat=(Caf)×Wta/Wtsam); Cab = Calcium remaining in the blank (i.e. glass bottle wherein no phosphonate was added; under these condition corresponds to minimum of 80% of calcium precipitated as CacO3); and Cai = Total calcium present in a reference t sample (i.e. a sample t in which the hardness brine has simply been diluted with water to get the same final volume).

[6] = Biodegradability, OECD 306 closed bottle marine test; conditions: after 14 days; 2 ppm of pure active solid
Procedure: Biodegradation tests are performed using the standard "closed bottle" marine test methods in accordance with OECD Guidelines 306. OECD306 is a test that measure biodegradation indirectly through the determination of the amount of dissolved oxygen in the medium. The measurement obtained are used to estimate the biodegradability (BOD) during the process.
The measured value of the BOD need to be corrected by dividing either with an experimental value of COD or a ThOD and multiply by 100% to get the biodegradability value.
OECD306 closed bottle test for was performed with a similar test set-up.

Structure (SMILES): O=C(O)CCCCCN(CP(=O)(O)O)CP(=O)(O)O
100% Ba scale inhibition [1]: (no inhibition on Ba)
Biodegradability [2]: 77.15%

Structure (SMILES): O=P(O)(O)CN(CP(=O)(O)O)CP(=O)(O)O [ATMP, aminotris(methylenephosphonic acid)]
Decomposition (%) [3]: 12.5%

Decomposition (%) [3]: 3.0%
% CaCO3 inhibition [5]: 94% @ 2 ppm
Biodegradability [6]: 31.5%
Structure (SMILES): O=C(O)CCCCCNC(P(=O)(O)O)P(=O)(O)O [Compound of Formula II, 6-((diphosphonomethyl)amino)hexanoic acid]
Ca Tolerance , visual observation ([4]; 100 ppm active acid): clear
Ca Tolerance , visual observation ([4]; 1000 ppm active acid): turbid
Ca Tolerance , visual observation ([4]; 10000 ppm active acid): turbid
Ca Tolerance , visual observation ([4]; 50000 ppm active acid): clear
100% Ba scale inhibition [1]: 50 ppm

Structure (SMILES): O=P(O)(O)CN(CCN(CP(=O)(O)O)CP(=O)(O)O)CCN(CP(=O)(O)O)CP(=O)(O)O [DTMPA, [[(phosphonomethyl)imino]bis [2,1-ethanediylnitrilobis (methylene)]] tetrakis-phosphonic acid]
Decomposition (%) [3]: 23.6%
Ca Tolerance , visual observation ([4]; 100 ppm active acid): clear
Ca Tolerance , visual observation ([4]; 1000 ppm active acid): turbid
Ca Tolerance , visual observation ([4]; 10000 ppm active acid): turbid
Ca Tolerance , visual observation ([4]; 50000 ppm active acid): clear
100% Ba scale inhibition [1]: 15 ppm

Structure (SMILES): CC(O)(P(=O)(O)O)P(=O)(O)O [HEDP, 1-hydroxy ethylidene-1,1-diphosphonic acid]
Decomposition (%) [3]: 2.3%
Ca Tolerance , visual observation ([4]; 100 ppm active acid): clear
Ca Tolerance , visual observation ([4]; 1000 ppm active acid): turbid
Ca Tolerance , visual observation ([4]; 10000 ppm active acid): turbid
Ca Tolerance , visual observation ([4]; 50000 ppm active acid): clear
100% Ba scale inhibition [1]: 30ppm

Structure (SMILES): O=P(O)(O)CN(CCO)CP(=O)(O)O [HEMPA, hydroxyethylamino-di(methylene phosphoric acid)]
Decomposition (%) [3]: 19.0%
